The source of these data is patent US20130030045A1, “METHOD OF PREVENTING AND TREATING OSTEOPOROSIS” (priority 2011, published 2013).

Data set [1] deals with RAW 264.7 cells. Description: TRAP activity assay, differentiation of RAW 264.7 cells. Type of data set: cell-based, mouse. The settings on record: at 8 μM, 16 μM, and 32 μM; compared to control. The method, then:
(§1) The cultured medium for cells derived from MBMMφ differentiation is removed, and cells are added with new medium. After incubation for 1 hour, and the activity of secretory type acid phosphatase in the medium is measured. First, 30 μl medium to be measured is taken out and added with […] TRAP assay reagent (0.1 M acetate buffer, 60 mM sodium tartrate and 5 mg/ml pNPP) followed by incubating for 30 minutes at 37° C., then adding 60 μl 0.5N NaOH solution to terminate the reaction and OD value at 405 nm of each specimen being measured.
In another embodiment, different concentrations of 7-methoxy flavone are respectively added into the cultured medium of RAW 264.7 cells (mouse leukaemic monocyte macrophages, another kind of preosteoclast cells) for 2 days. Next, after adding 20 ng/ml
RANKL and 10 ng/ml M-CSF to induce RAW 264.7 cell differentiation for 3 days, TRAP activity assay is then performed.

Data set [2] deals with MBMMφ cells. Put plainly: MTT assay, MBMMφ cell growth. (In general: Formazan colour is commonly taken as a measure of viable cells.)
Procedure: (§2) In an embodiment, different concentrations (0 μM, 1 μM, 5 μM, 10 μM, 15 μM, 20 μM, and 25 μM) of 7-methoxy flavone are respectively added into 3,000 MBMMφ cells/well in the cultured medium containing M-CSF for 1 day incubation. Next, MTT reagent is used to detect the OD value of cells so as to determine the growth situation of MBMMφ cells.
The subject of data set [3] is RAW 264.7 cells. Put plainly: Toxicity to RAW 264.7 cells. Type of data set: cell-based, mouse. Particulars: data not shown.
Data set [4] has as its system MC3T3-E1 cells. Put plainly: MTT assay, MC3T3-E1 cell growth. Particulars: 1 day. The source says:
In an embodiment, different concentrations of flavone, 6-methoxy flavone, 7-methoxy flavone, 6-hydroxy flavone and 7-hydroxy flavone are respectively added into 3,000 MC3T3-E1 cells per well in the cultured medium for 1 day.

In a further data set the test system is SaOS-2 cells. Put plainly: Calcium staining for calcium deposition (CaP assay) of SaOS-2 cells. Type of data set: cell-based, human. The settings on record: 10 μM, 7 day; data not shown.
Data set [5] relates to MC3T3-E1 cells. Put plainly: Alkaline phosphatase (ALP) assay, differentiation of MC3T3-E1 cells. Type of data set: cell-based. The settings on record: 4 days. The method, then:
In experiments, 10,000 cells/well are cultured with alpha-MEM medium (including 10% FBS and 1× antibiotic-antimycotic solution) for 4 days at 37° C. in 5% CO2 incubator. After adding different concentrations of methoxy flavones or hydroxy flavones to react for 4 days, the cultured medium is removed and 100 μl 4% formaldehyde is added to fix cells for 10 minutes. After washing cells, 30 μl p-nitrophenyl phosphate (pNPP) solution is added to react for 30 minutes at 37° C., and then 30 μl 0.5 N NaOH is added to stop the reaction. Finally, OD value is measured at […] using ELISA reader.
In an embodiment, different concentrations of 6-methoxy flavone and 7-methoxy flavone are respectively added into MC3T3-E1 cells (a kind of preosteoblast cells) in alpha-MEM medium (containing 10% FBS, 1× antibiotic-antimycotic solution, 10 mM β-glycerophsphate, 50 μg/ml VitC, 10^−7 M dexamethasone) for 4 days to induce cell osteogenic differentiation and maturation. Because differentiated MC3T3-E1 cells will express the ALP activity, ALP activity assay is used to know the extent of cell differentiation. FIGS. 5(A) and 5(B) illustrate ALP activities at four different concentrations (1.25 μM, 2.5 μM, 5 μM, 10 μM) of 6-methoxy flavone and 7-methoxy flavone, respectively, in comparison with controls (with only PBS, or without 6-methoxy flavone or 7-methoxy flavone but with equal volume of vehicle, DMSO).
In still another embodiment, different concentrations (0.4 μM, 2 μM, 10 μM, 50 μM) of flavone, 7-methoxy flavone and 6-hydroxy flavone are respectively added into MC3T3-E1 cells in alpha-MEM medium with 10% FBS, 1× antibiotic-antimycotic solution, 10 mM β-glycerophsphate, 50 μg/ml Vitamin C, and 10^−7 M dexamethasone for 4 day incubation to induce cell differentiation and maturation. FIGS. 7(A)-7(C) illustrate ALP activities of MC3T3-E1 cells after exposed to four different concentrations of flavone, 7-methoxy flavone and 6-hydroxy flavone, respectively, in comparison with control (without flavone, 7-methoxy flavone or 6-hydroxy flavone, but with vehicle DMSO).

Data set [6] concerns human mesenchymal stem cells (hMSCs). Description: Calcein fluorescent test for calcium precipitation, osteogenesis of human mesenchymal stem cells. Type of data set: cell-based. The settings on record: FIG. 10, calcein fluorescent test. An excerpt: FIGS. 10(A)-10(D) respectively illustrate the effects of 6-methoxy flavone, 7-methoxyl flavone, 7-hydroxy flavone, and 6-hydroxy flavone on the osteogenesis of human mesenchymal stem cells, based on calcein fluorescent test for calcium precipitation.
Moreover, the present invention also measures the effects of methoxy flavones and hydroxyl flavones on human mesenchymal stem cells (hMSCs).

For data set [7], the system named is MBMMφ cells. Put plainly: TRAP activity assay, differentiation of MBMMφ cells induced with RANKL and M-CSF. Type of data set: cell-based, mouse. The settings on record: for IC50: Mus musculus, 2 days with compound, then 20 ng/ml RANKL and 10 ng/ml M-CSF for 5 days, read-out: IC50, s-TRAP activity (inhibition of differentiation of MBMMφ cells). The method, then:
In some embodiments of the present invention, preosteoclast cells used are obtained from bone marrow in hind leg bone of C57BL/6J Narl mice, called as MBMMφ cells (mouse bone marrow macrophages), and are cultured in alpha-MEM medium (including 10% FBS and 1× antibiotic-antimycotic solution) and then added with M-CSF (macrophage colony-stimulating factor) and RANKL (receptor for activation of nuclear factor kappa B ligand) for inducing cell differentiation and maturation.
as §1
In an embodiment, different concentrations of flavone (chemical structure as shown in FIG. 2(A)), 6-methoxy flavone (FIG. 2(B)), 7-methoxy flavone (FIG. 2(C)), 6-hydroxy flavone (FIG. 2(D)) and 7-hydroxy flavone (FIG. 2(E)) are respectively added into the cultured medium of MBMMφ cells, which had been cultured in 10 ng/ml M-SCF without treating with flavone components for 5 days, for 2 days. Next, after adding 20 ng/ml RANKL and 10 ng/ml M-CSF to induce cell differentiation for another 5 days, TRAP activity assay is performed.

For data set [8], the system named is MC3T3-E1 cells. Description: Alizarin Red S stain, calcium deposition of MC3T3-E1 cells. Type of data set: cell-based. Particulars: at 5 μM, 10 μM, 20 μM and 40 μM; 20 days. The method, then:
In an embodiment, different concentrations (2.5 μM, 5 μM, 10 μM, 20 μM and 40 μM) of 7-methoxy flavone are respectively added into the cultured medium of MC3T3-E1 cell incubated for 20 days, wherein the cultured medium with 7-methoxy flavone is changed every 4 days. Next, Alizarin Red S stain is used to observe the calcification situation of MC3T3-E1 cells, and OD value at 562 nm is measured for quantitative analysis.

The test system of data set [9] is MBMMφ cells.
Procedure: as §2
Where [10] appears, read: at the concentration of equal to or larger than 5 μM.
The mark [11] stands for this setting: at the concentration of equal to or larger than 10 μM.

The term IC50 denotes the point on the concentration scale where inhibition reaches its midpoint.

Read-outs that look alike come from different tables or passages of the source.

Regarding `COc1ccc2c(=O)cc(-c3ccccc3)oc2c1` [7-methoxy flavone], in the data set on RAW 264.7 cells [1], the “effect on differentiation of RAW 264.7 cells (TRAP activity)” value is “significantly inhibit the differentiation of RAW 264.7 cells”. Further, the “growth of MBMMφ cells (MTT, cytotoxicity)” value (shortened to “growth of MBMMφ cells”) with MBMMφ cells [2] (0-25 μM, 1 day incubation, medium containing M-CSF) is listed as “does not affect the growth of MBMMφ cells”. Besides, the “toxicity to RAW 264.7 cells” value in the data set with RAW 264.7 cells [3] is recorded as “no toxicity to RAW 264.7 cells”. Moreover, the “growth of MC3T3-E1 cells (MTT, cytotoxicity)” value (“growth of MC3T3-E1 cells” for short) with MC3T3-E1 cells [4] (mouse) was “do not affect the growth of MC3T3-E1 cells”. Further, the “calcium deposition of SaOS-2 cells” value with SaOS-2 cells was “significantly enhance calcium deposition of SaOS-2 cells”. The “effect on differentiation of MC3T3-E1 cells (ALP activity)” value in the data set with MC3T3-E1 cells [5] (at 4 μM and 16 μM, FIG. 6) is “significantly stimulate the differentiation of MC3T3-E1 cells”; in the data set with MC3T3-E1 cells [5] (at 5 μM and 10 μM, FIG. 5), “efficiently enhance the differentiation of MC3T3-E1 cells”; with MC3T3-E1 cells [5] (at 10 μM and 50 μM, FIG. 7) it was “obviously stimulate the differentiation of MC3T3-E1 cells”. Besides, the “calcium deposition of hMSCs” value in [6] is “inhibit calcium deposition on hMSCs only at high concentration”. The IC50 in the data set with MBMMφ cells [7] was found to be 7.1 ± 0.6 µM. Besides, the “effect on differentiation of MBMMφ cells (s-TRAP activity)” value (shortened to “effect on differentiation of MBMMφ cells”) with MBMMφ cells [7] (setting [10]) is recorded as “manifestly inhibit the differentiation of MBMMφ cells”. Further, in the data set on MC3T3-E1 cells [8], the “calcium deposition of MC3T3-E1 cells (Alizarin Red S, OD 562 nm)” value is on record as “effectively enhance calcium deposition of MC3T3-E1 cells”.
`O=c1cc(-c2ccccc2)oc2ccc(O)cc12` [6-hydroxy flavone]: the “growth of MBMMφ cells” value in the data set on MBMMφ cells [2] (not shown) is “do not influence the growth of MBMMφ cells”. Moreover, the “growth of MC3T3-E1 cells” value in the data set with MC3T3-E1 cells [4] (mouse) was “do not affect the growth of MC3T3-E1 cells”. Besides, the “calcium deposition of SaOS-2 cells” value in the data set on SaOS-2 cells is recorded as “significantly enhance calcium deposition of SaOS-2 cells”. Also, the “effect on differentiation of MC3T3-E1 cells (ALP activity)” value in the data set with MC3T3-E1 cells [5] (at 4 μM and 16 μM, FIG. 6) is “significantly stimulate the differentiation of MC3T3-E1 cells”; with MC3T3-E1 cells [5] (at 10 μM and 50 μM, FIG. 7) it was “obviously stimulate the differentiation of MC3T3-E1 cells”. For the same compound, in data set [6], the “calcium deposition of hMSCs” value is “does not inhibit calcium deposition even at high concentration”. Besides, the IC50 in the data set on MBMMφ cells [7] turned out to be 7.3 ± 0.2 µM. Besides, the “effect on differentiation of MBMMφ cells” value in the data set with MBMMφ cells [7] (setting [11]) was “significantly inhibit the differentiation of MBMMφ cells”.
With `O=c1cc(-c2ccccc2)oc2ccccc12` [flavone, reference compound], the “growth of MBMMφ cells” value in the data set with MBMMφ cells [9] was “do not influence the growth of MBMMφ cells”. Further, in the data set with MC3T3-E1 cells [4] (mouse), the “growth of MC3T3-E1 cells” value is recorded as “do not affect the growth of MC3T3-E1 cells”. The “effect on differentiation of MC3T3-E1 cells (ALP activity)” value in the data set on MC3T3-E1 cells [5] (0.25 μM, 1 μM, 4 μM, 16 μM, FIG. 6) is listed as “does not stimulate the differentiation of MC3T3-E1 cells”; in the data set on MC3T3-E1 cells [5] (0.4 μM, 2 μM, 10 μM, 50 μM, FIG. 7), “does not significantly stimulate the differentiation of MC3T3-E1 cells”. Also, the “effect on differentiation of MBMMφ cells” value in the data set on MBMMφ cells [7] (1 μM, 5 μM, 10 μM, 20 μM, in comparison with control) is “does not have obvious effect”. Further, the half-maximal inhibitory concentration (IC50) in the data set on MBMMφ cells [7] is > 20 µM.
Regarding `O=c1cc(-c2ccccc2)oc2cc(O)ccc12` [7-hydroxy flavone], the “growth of MBMMφ cells” value in the data set on MBMMφ cells [2] (not shown) was “do not influence the growth of MBMMφ cells”. Besides, in the data set on MC3T3-E1 cells [4] (different concentrations, FIG. 8), the “growth of MC3T3-E1 cells” value is listed as “do not affect the growth of MC3T3-E1 cells”. Moreover, the “calcium deposition of SaOS-2 cells” value with SaOS-2 cells is on record as “significantly enhance calcium deposition of SaOS-2 cells”. Moreover, the “effect on differentiation of MC3T3-E1 cells (ALP activity)” value in the data set with MC3T3-E1 cells [5] (at 16 μM, FIG. 6) is on record as “enhance effectively the cell differentiation”. Further, in data set [6], the “calcium deposition of hMSCs” value is on record as “inhibit calcium deposition on hMSCs only at high concentration”. For the same compound, the IC50 in the data set with MBMMφ cells [7] came out at 10.9 ± 1.3 µM. Further, in the data set with MBMMφ cells [7] (setting [11]), the “effect on differentiation of MBMMφ cells” value is listed as “significantly inhibit the differentiation of MBMMφ cells”.
For `COc1ccc2oc(-c3ccccc3)cc(=O)c2c1` [6-methoxy flavone], in the data set with MBMMφ cells [2] (not shown), the “growth of MBMMφ cells” value is “do not influence the growth of MBMMφ cells”. Also, the “growth of MC3T3-E1 cells” value with MC3T3-E1 cells [4] (mouse) was “do not affect the growth of MC3T3-E1 cells”. In addition, in the data set on MC3T3-E1 cells [5] (at 5 μM and 10 μM, FIG. 5), the “effect on differentiation of MC3T3-E1 cells (ALP activity)” value was “efficiently enhance the differentiation of MC3T3-E1 cells”. Moreover, in data set [6], the “calcium deposition of hMSCs” value is recorded as “greatly inhibits calcium deposition of hMSCs”. For the same compound, the IC50 in the data set on MBMMφ cells [7] amounted to 5.4 ± 0.2 µM. In addition, the “effect on differentiation of MBMMφ cells” value in the data set with MBMMφ cells [7] (setting [10]) was “manifestly inhibit the differentiation of MBMMφ cells”.
